Legend:
HBV wt (HepG2) = assay: Anti-HBV activity in HBV-infected HepG2 cells; type: cell-based; settings: N=3
Description: The compound of Example 1 (NM 204) (Hydroxy-tBuSATE N-benzylphosphoramidate derivative of L-ddA) (A550) was contacted with HBV-infected HepG2 cells. EC50 values were measured according to standard techniques.

[1] = Pharmacokinetic (PK) studies, oral, monkey; type: in vivo; settings: orally administered
Description: (§1) Methods: For pharmacokinetic (PK) and toxicology studies, B102 were orally administered to rats or monkeys at doses from 20 to 300 mg/kg/day up to 14 days. Hepatic nucleoside TP levels were determined by LC-MS/MS. Compounds (10 mg/kg/day) were administered once daily by oral gavage for 4 days in chimpanzees chronically infected with HCV genotype 1. HCV viral loads were monitored before, during and after treatment by quantitative RT-PCR.

[2] = test system: HCV Conl subgenomic replicon (GS4.1 cells); assay: HCV replicon assay (NS4A ELISA, HCV ELISA 2); type: cell-based; settings: Hepatitis C virus; GS4.1 cells, 72 hours, NS4A ELISA; read-out: HCV ELISA 2 EC50
Description: (§2) Huh-7 cells containing HCV Conl subgenomic replicon (GS4.1 cells), (C. Seeger; Fox Chase University, Philadelphia, Pa., USA), are grown in Dulbecco's Modified Eagle Medium (DMEM) supplemented with 10% fetal bovine serum (FBS), 2 mM L-glutamine, 110 mg/L sodium pyruvate, 1×non-essential amino acids, 100 U/mL penicillin-streptomycin and 0.5 mg/mL G418 (Invitrogen). For dose-response testing, the cells are seeded in 96-well plates at 7.5×10^3 cells/well in a volume of 50 μL and incubated at 37° C./5% CO2. Three hours after plating, 50 μL of ten 2-fold serial dilutions of compounds (highest concentration, 75 μM) are added and cell cultures were incubated at 37° C./5% CO2 in the presence of 0.5% DMSO. Alternatively, compounds are tested at a single concentration of 15 μM. In all cases, Huh-7 cells lacking the HCV replicon served as negative control. The cells are incubated in the presence of compounds for 72 hours after which they were monitored for expression of the NS4A protein by enzyme-linked immunosorbent assay (ELISA). For this, the plates were then fixed for 1 min with 1:1 acetone:methanol, washed twice with phosphate-buffered saline (PBS), 0.1% Tween 20, blocked for 1 hour at room temperature with TNE buffer containing 10% FBS and then incubated for 2 h at 37° C. with the anti-NS4A mouse monoclonal antibody A-236 (ViroGen) diluted in the same buffer. After washing three times with PBS, 0.1% Tween 20, the cells are incubated 1 hour at 37° C. with anti-mouse immunoglobulin G-peroxidase conjugate in TNE, 10% FBS. After washing as described above, the reaction is developed with O-phenylenediamine (Zymed). The reaction is stopped after 30 minutes with […] and the absorbance is read at 492 nm using a Sunrise Tecan spectrophotometer. EC50 values are determined from the % inhibition versus concentration data using a sigmoidal non-linear regression analysis based on four parameters with Tecan Magellan software. […] For cytotoxicity evaluation, GS4.1 cells are treated with compounds as described above and cellular viability was monitored using a Cell Titer 96 AQueous One Solution Cell Proliferation Assay (Promega). CC50 values are determined from the % cytotoxicity versus concentration data with Tecan Magellan software as described above.

[3] = Pharmacokinetic (PK) studies, oral, rat; type: in vivo; settings: orally administered
Description: as §1

[4] = Cytotoxicity evaluation in GS4.1 cells (Cell Titer 96 AQueous One Solution); type: cell-based; settings: human, 72 hours
Description: as §2

HCV genotype 1 = assay: Antiviral activity in chimpanzees chronically infected with HCV genotype 1; type: in vivo; settings: 4 days; for Mean viral load reduction: HCV-infected chimpanzees, 10 mg/kg/day oral once daily
Description: as §1

[5] = test system: endogenous HBV polymerase activity; assay: HBV drug susceptibility assay (EPA read-out); type: cell-based; settings: for SI: CC50/EC50, HBV Cell Assay (EPA Read-out); for EC50: Hepatitis B virus, HBV Cell Assay (EPA Read-out), collagen plates, read-out: Antiviral Activity (EC50 in μM)
Description: • a) Collagen-I coated cell culture plates were seeded with cells at a density of 0.25-0.5×10^6 cells per well in 2 ml of growth/selection media. • b) Drug stock solutions were made up freshly in 100% DMSO as 200× stocks. Seven 4-fold dilutions of test compound were prepared ranging from 2.5 μM to 0.0006 μM (final). Master drug dilutions were divided into 4 aliquots, and then stored at −20° C. until used. • c) One day after cells were seeded, drug treatments were initiated by adding 10 μl of drug dilution along with 2 ml of fresh growth/selection media. […] The no-drug control wells received 10 μl of DMSO in fresh media. • d) Cells were treated every-other-day with 2 ml of fresh drug combinations/medium for a total of 8 days. Cell lysates were then collected on day 10 as described below and endogenous polymerase assay were performed. Preparation of Nucleocapsid-Containing Lysates for Epa Analysis • a) Two days after the final drug treatment, cells were harvested. • b) Media was carefully aspirated and the cell monolayers were rinsed once with 1 ml of PBS. • c) 1 ml of lysis buffer (50 mM Tris-HCl pH 7.5/150 mM NaCl/5 mM MgCl2/0.2% NP-40) was added to each well. The detergent is required to strip the outer envelope from virions and to allow capture of the inner nucleocapsids. Plates were kept on ice for >30 min. • d) Lysed cells were transferred to 1.5 ml-microfuge tubes. • e) Lysates were clarified by spinning at room temperature for 5 min at 14,000 rpm. • f) Clarified lysates were transferred to fresh tubes and immediately frozen on dry-ice, then stored at −80° C. until endogenous polymerase assays can be performed as described below. Endogenous Polymerase Assay (EPA) of Cell Lysates • a) EPAs were performed essentially as described in Seifer, et al (1998). J. Virol. 72: 2765-2776. […] The detergent is required to enhance permeability of the nucleocapsids. • d) Following digestion with 1 mg/ml of Proteinase K for 1 hour at 37° C., endogenously ^33P-labeled HBV DNA was liberated via phenol/chloroform extraction. • e) The nucleic acids were then precipitated with one volume of 5 M NH4-acetate and 2.5 volumes 100% EtOH, and separated on a 1% native agarose gel in Tris-borate buffer. • f) Gels were blotted onto positively charged nylon membrane overnight at room temperature via capillary transfer in 0.4 N NaOH. • g) Dried membranes were exposed to a phosphoimager screen (GE Healthcare) overnight at room temperature, then scanned (Storm 860, GE Healthcare) and quantitated with ImageQuant software (GE Healthcare). • h) Dose-response curves were generated using XLfit 4.1 software. The mean effective drug concentrations that inhibit endogenous HBV polymerase activity by 50% were calculated from several independent experiments. Cytotoxicity Determination

[6] = test system: wild-type HBV (intracellular nucleocapsids); assay: Anti-HBV activity in HBV nucleocapsids (RI) via endogenous polymerase assay (EPA); type: cell-based; settings: Hepatitis B virus; wild-type HBV producer cell line, intracellular nucleocapsids, EPA; read-out: RI EC50
Description: (§3) Compounds were tested in an anti-HBV assay. Determination of anti-HBV activity in HBV virions and nucleocapsids via endoenous polymerase assays (EPA)
(§4) • 1. 12-well collagen-I coated plates were seeded with producer cells expressing wild-type HBV at a density of 0.5-1×10^6 cells per well in 2 ml growth/selection media. • 2. Drug stock solutions were made up freshly in 100% DMSO as 200× stocks. Five additional 4-fold dilutions were prepared from these 200× stock in 100% DMSO. For each experiment, 4 aliquots of each drug dilution series were stored at −20° C. until used. • 3. Once cells reached confluency (1 day after cells were seeded), drug treatment was initiated by adding 10 μl of drug dilution into 2 ml of fresh growth/selection media. […] The no-drug control wells received only 10 μl of DMSO in fresh media. • 4. Cells were treated every-other-day with 2 ml of fresh drug/medium for a total of 8 days. Cell lysates were then collected on day 10 and subjected to EPA analysis as described below. Preparation of Nucleocapsid-Containing Lysates for Epa Analysis • 1. Cells were grown for 3 to 4 days in 12-well collagen-I coated plates until confluent. • 2. Media was carefully aspirated and the cell monolayers were rinsed once with 1 ml of PBS. • 3. One ml of lysis buffer (50 mM Tris-HCl pH 7.5/150 mM NaCl/5 mM MgCl2/0.2% NP-40) was added to each well. Plates were stored on ice for 30 min to 4 h. • 4. Lysed cells were transferred to 1.5 ml-microfuge tubes. • 5. Lysates were clarified by spinning at 14,000 rpm for 5 min at room temperature. • 6. Clarified lysates were transferred to fresh tubes and immediately frozen on dry-ice, then stored at −80° C. until endogenous polymerase assays were performed as described below. Preparation of Secreted Virions from Supernatant for Epa Analysis • 1. Cells were grown for 3 to 4 days in 12-well collagen-I coated plates until confluent. • 2. Media was carefully aspirated and transferred to 1.5 ml-microfuge tubes. • 3. Supernatants were clarified by spinning at 14,000 rpm for 5 min at room temperature. • 4. Clarified supernatants were transferred to fresh tubes and immediately frozen on dry-ice, then stored at −80° C. until endogenous polymerase assays were performed essentially as described below. Endogenous Polymerase Assay (EPA) of Cell Lysates and Supernatants • 1. EPAs were performed essentially as described by Seifer et al (1998). Intracellular HBV nucleocapsids were immunoprecipitated from the cytoplasmic lysates overnight at 4° C. with a polyclonal rabbit anti-HBcAg antibody and immobilized on protein A sepharose CL-4B beads. Secreted virions were immunoprecipitated from clarified cell supernatants overnight at 4° C. with a monoclonal mouse anti-LS antibody (MA18/7) in the absence of detergent. • 2. Following 3 washes of the immobilized capsids or virions with 1 ml of EPA wash buffer (75 mM NH4Cl, 50 mM Tris-HCl pH 7.4, 1 mM EDTA), endogenous polymerase reactions were initiated by adding 50 μl of detergent-containing EPA cocktail (50 mM Tris-HCl pH7.4, 75 mM NH4Cl, 1 mM EDTA, 20 mM MgCl2, 0.1 mM β-ME, 0.5% NP-40, 100 μM cold dGTP, TTP, dCTP, and 50 nM ^33P-dATP) and incubated overnight at 37° C. The detergent is required to strip the outer envelope from immunoprecipitated virions as well as to enhance permeability of the nucleocapsids. • 3. Following digestion with 1 mg/ml of proteinase K for 1 h at 37° C., endogenously ^33P-labeled HBV DNA was liberated via phenol/chloroform extraction. • 4. The nucleic acids were precipitated with 1 volume of 5M NH4-acetate and 2.5 volumes of 100% EtOH, and then separated on a 1% native agarose gel in Tris-borate-EDTA buffer. • 5. Gels were blotted onto positively charged nylon membrane overnight at room temperature via capillary transfer in 0.4 N NaOH. • 6. Dried membranes were exposed to a Phosphorlmager screen (GE Healthcare) overnight at room temperature, then scanned (Storm 860, GE Healthcare) and quantitated with ImageQuant software (GE Healthcare). • 7. […]

[7] = In vitro cytotoxicity assay in HepG2 cells (MTS); type: cell-based; settings: human, collagen plates
Description: A standard in vitro cytotoxicity assay was performed in HepG2 cells. Cells were exposed to drug for 9 days. Cell viability was determined via MTS staining using a CellTiter 96 Aqueous One Solution cell proliferation assay according to the manufacturer's instructions. • a) HepG2 cells were seeded in 96-well tissue culture plates in 100 μl fresh growth media at 7×10^3 cells per well. • b) Drug stock solutions were made up in 100% DMSO as 400× stock solutions and stored at −20° C. until used. • c) Four hours after cells were plated the drug dilutions were prepared and then added to the cells. Cells received up to 100 μM of drug in a total of 200 μl of fresh growth media containing 0.25% DMSO. Control wells received growth media with 0.25% DMSO growth media. Plates were incubated at 37° C., 5% CO2. • d) Cells were treated every-other-day with fresh growth media and fresh drug dilutions for a total of 8 days as described above. • e) On day 9, cell viability of HepG2 cells was determined by adding 20 μl of MTS CellTiter 96 Aqueous One Solution.

[8] = test system: wild-type HBV (secreted virions); assay: Anti-HBV activity in HBV virions via endogenous polymerase assay (EPA); type: cell-based; settings: Hepatitis B virus, read-out: Virion EC50 (μM)
Description: as §3, §4

Nc1ncnc2c1ncn2[C@@H]1CC[C@H](CO)O1 [LddA, L-ddA]
EC50 (HBV wt (HepG2)): > 10000 nM

Nc1ccn([C@@H]2CS[C@H](CO)O2)c(=O)n1 [Lamivudine, lamivudine]
EC50 (HBV wt (HepG2); Hepatitis B virus): 22 ± 7 nM

CC(C)(CO)C(=O)SCCOP(=O)(NCc1ccccc1)OC[C@H]1O[C@@H](n2ccc(N)nc2=O)[C@](C)(O)[C@@H]1O (mixture of isomers) [Example B102, Hydroxy-tBuSATE N-benzylphosphoramidate Derivative of 2′-C-methylcytidine]
first-pass hepatic extraction [1]: > 95% | systemic exposure [1]: < 1% | EC50 [2]: 1000 to 10000 nM | first-pass hepatic extraction [3]: > 95% | systemic exposure [3]: < 1% | CC50 [4]: > 75000 nM | Mean viral load reduction (HCV genotype 1): 1.5 log 10 | lab abnormalities or evidence of toxicities (HCV genotype 1; chimpanzees, 10 mg/kg/day oral): No lab abnormalities or evidence of toxicities were observed

Nc1ncnc2c1ncn2CCOCP(=O)(O)O [PMEA]
SI [5]: >310 | EC50 [5]: 0.328 ± 0.082 µM | EC50 [6]: < 1000 nM | CC50 at 9 days [7]: > 100 µM

CC(C)(CO)C(=O)SCCOP(=O)(COCCn1cnc2c(N)ncnc21)NCc1ccccc1 (stereo not drawn) [Example B261, Hydroxy-tBuSATE N-benzylphosphonamidate Derivative of PMEA]
SI [5]: 1,225 | EC50 [5]: 0.016 ± 0.004 µM | EC50 [6]: < 1000 nM | CC50 at 9 days [7]: 19.6 µM

CC(C)(CO)C(=O)SCCOP(=O)(NCc1ccccc1)OC[C@H]1CC[C@@H](n2cnc3c(N)ncnc32)O1 (stereo partly drawn) [Ex 1 (A550)]
EC50 (HBV wt (HepG2); Hepatitis B virus): 62 ± 18 nM

CC(C)(CO)C(=O)SCCOP(=O)(NCc1ccccc1)OC[C@@H]1CC[C@H](n2cnc3c(N)ncnc32)O1 (stereo partly drawn) [C819 (NM 177)]
EC50 [6]: 1000 to 10000 nM | EC50 [8]: 1 to 10 µM

CC(C)(CO)C(=O)SCCOP(=O)(NCc1ccccc1)OC[C@H]1CC[C@@H](n2cnc3c(N)ncnc32)O1 (stereo partly drawn) [A550 (NM 204)]
EC50 [6]: < 1000 nM | EC50 [8]: < 1 µM

CC(C)[C@H](N)C(=O)O[C@@H]1[C@@H](CO)O[C@@H](n2ccc(N)nc2=O)[C@]1(C)O [valopicitabine, reference compound]
Mean viral load reduction (HCV genotype 1): 0.7 log 10
